Experimental data taken from US11419913B2, “Pharmaceutical compositions for inhibiting inflammatory cytokines” (S.I.S. SHULOV INNOVATIVE SCIENCE LTD., priority 2018, dated 2022).
In brackets after ≈: the same amount, converted by molar mass. Where a name gives a salt, the structure may show the parent alone. Where a SMILES comes first, the peptide text is derived from it. [ ]: non-standard residue; d: D form. The star is where a group is joined. pGlu = O=C1CC[C@@H](C(=O)O)N1; Octanoyl = CCCCCCCC(=O)*

Key:
[1] = Oxazolone-induced atopic dermatitis mouse model, tolerability and bodyweights
Description: Method: Animals were sensitized by topical administration of oxazolone 2% in ethanol on the back at Day 0 after shaving and depilation of the animals (sensitization phase). Then a challenge was performed one week later by topical administration of oxazolone 1% in ethanol on the back and on right ear every 2 days at 10 occasions namely for total 3 weeks. The tested compounds were applied during the challenge phase every 2 days via the topical route as ready to use cream formulations. The surface of application was the same as for challenge (back+ear). 100 μL were deposited on the back and the back was smoothly massaged. Then, remaining formulation on finger glove was deposited on the internal face of the ear. Every other day, back skin and ears thickness were measured using caliper; and the following clinical scores were recorded from back skin: erythema and scaling. Animals were also weighed every other day (approximate bodyweights of a mouse at startup is about 20 g).
The formulations used for topical administration of the tested compound were: ZEP3 1% cream having pH 7.1 and comprising: Propylene glycol, Polysorbate 80, Edetate Disodium, Silicon dioxide (syloid), Methylparaben, White petrolatum, Isopropyl Myristate, Cetyl Alcohol and Glyceryl Monostearate. ZEP3Na 1% cream having pH 8.0 and comprising: Propylene glycol, Polysorbate 80, Edetate Disodium, Silicon dioxide (syloid), Methylparaben, White petrolatum, Isopropyl Myristate, Cetyl Alcohol and Glyceryl Monostearate. ZEP4 1% cream having pH 4.5 and comprising: Propylene glycol, Glycerin, Polysorbate 80, EDTA Disodium, Xanthan Gum, Silicon dioxide (syloid), Methylparaben, White petrolatum, Isopropyl Myristate, Cetyl Alcohol, Stearyl Alcohol, and Glyceryl Monostearate (kolliwax).

[2] = system: oxazolone-induced atopic dermatitis (AD) mouse models; experiment: Oxazolone-induced atopic dermatitis mouse model, clinical lesions; type: in vivo
Description: The effect of topical administration of ZEP3 (SEQ ID NO: 1), and its sodium salt form (ZEP3Na), and ZEP4 (SEQ ID NO: 2) was evaluated in oxazolone-induced atopic dermatitis (AD) mouse models. This model is widely used and well described in literature (Avci et al. 2013 Expert Opin Drug Discov. 8, 331-355; Petersen T. K. 2006, Basic Clin. Pharmacol. Toxicol. 99, 104-115) as an accepted animal model for evaluating drugs for AD therapy in humans.

TNF alpha = TNF alpha secretion in LPS treated human keratinocytes (ELISA); type: cell-based; settings: for TNFα: ZEP3Na without DMSO; for Fold Change: refers to TNF-α concentration in sample #2; for % Inhibition: vs corresponding control group without peptide
Description: Methods: SCCE020 cells (EpiGRO™ Human Epidermal Keratinocytes) were grown in complete growth medium (EpiGRO™ Human Keratinocytes Complete Medium; Millipore Cat. #SCMK001) for 4 passages. At passage 5, cells were seeded (3*10^5 cells/well) in triplicates in a volume of 1 ml complete growth medium per well. Additional 3 control wells contained only medium without cells. Upon adherence, cell medium was replaced by basal medium containing L-Glutamine without supplements (starvation medium) and cells were starved overnight. The next day, 24 hours after seeding, the cells were treated with ZEP3 or ZEP3Na or appropriate diluent (PBS or DMSO). After 4 hours of incubation, LPS (from E. Coli 055: B5; Sigma Cat. #L6529-1MG) was added to the wells in final concentration of 20 or 30 μg/ml.
Cells were incubated for 24 hours in tissue culture incubator. After collecting cell supernatants from all wells, cells from treatment groups: 1, 2, 3, 8, 9, 10, 13, 14 (without DMSO groups) were pelleted and stored at −80° C. for further analyses. The cells were collected from as following: upon supernatants collection, the wells were rinsed with trypsin, then incubated with trypsin until they detached from the plate surface, centrifuged, washed with PBS and stored as a cell pellet. TNF-α concentration in the supernatants was measured by ELISA (Quantikine HS ELISA; R&D Systems Cat. #HSTA00D), in 5 replicates.
TNF alpha concentration in the samples was calculated according to the standard curve trend line equation: =0.063x+0.1718. Percent inhibition of TNF alpha production was calculated in each treatment group in comparison to the corresponding control group (same conditions, without peptide).

physchem = settings: water
CMC type arthritis = experiment: Treatment of CMC arthritis of the big toe in a subject; type: in vivo, human; settings: 0.5% cream applied on the swollen area 5 times a day
From the text: Their toe was swollen, red, and so painful that it prevented them from walking. ZEP3 sodium salt at 0.5% cream was applied on the swollen area 5 times a day.

[3] = peptide 0.02 mg/ml, LPS 20 μg/ml
[4] = peptide 0.2 mg/ml, LPS 20 μg/ml
[5] = peptide 0.2 mg/ml, LPS 30 μg/ml
[6] = peptide 0.4 mg/ml, LPS 20 μg/ml

C[C@H]1C[C@H]2[C@@H]3CCC4=CC(=O)C=C[C@]4(C)[C@@]3(F)[C@@H](O)C[C@]2(C)[C@@]1(O)C(=O)CO [Betamethasone, reference compound]
bodyweight loss ([1]; topical, 2.5 mg/kg): 8-10%
Back skin thickness decrease ([2]; day 28, topical, 2.5 mg/kg): 40%

CCCCCCCC(=O)NCCCC[C@H](NC(=O)[C@H](Cc1c[nH]c2ccccc12)NC(=O)[C@H](CC(N)=O)NC(=O)[C@@H]1CCC(=O)N1)C(=O)O [ZEP3Na, pGlu-Asn-Trp-Lys(Octanoyl)-OH.nNa] ([pGlu]NWK(Octanoyl)-OH)
TNF alpha levels / production in LPS treated human keratinocytes (in words) (TNF alpha; compared with cells stimulated with LPS alone): dose dependent inhibition
TNFα (TNF alpha; peptide 0.02 mg/ml, LPS 20 μg/ml, ZEP3 in 0.025% DMSO): 9.2 pg/mL
Fold Change (TNF alpha; [3]): 3.3
% Inhibition (TNF alpha; [3]): 26%
TNFα (TNF alpha; peptide 0.2 mg/ml, LPS 20 μg/ml, ZEP3 in 0.05% DMSO): 6.7 pg/mL
Fold Change (TNF alpha; [4]): 2.4
% Inhibition (TNF alpha; [4]): 46%
TNFα (TNF alpha; peptide 0.2 mg/ml, LPS 30 μg/ml, ZEP3 in 0.10% DMSO): 13.1 pg/mL
Fold Change (TNF alpha; [5]): 4.7
% Inhibition (TNF alpha; [5]): 38%
TNFα (TNF alpha; peptide 0.4 mg/ml, LPS 20 μg/ml, ZEP3 in 0.10% DMSO): 5.9 pg/mL
Fold Change (TNF alpha; [6]): 2.1
% Inhibition (TNF alpha; [6]): 52%
tolerability ([1]; 50 mg/kg topical to atopic dermatitis induced mice): well tolerated
Bodyweights in comparison to the excipient ([1]; day 8 to day 28): behaved normally
solubility (physchem): 50 mg/mL (≈ 73.1 mM)
time to relief reported by the subject (CMC type arthritis): within one day
time to resolution of the condition (CMC type arthritis): 3 to 4 days
Scaling: period of reduction ([2]; 1% cream topical, 50 mg/kg, scaling score of back skin): from days 14 to 24
Right ear thickness, significant difference in comparison to control ([2]; days 18, 20 and 22): −18.4 to −22.7%
Erythema scoring: days with a significant difference ([2]; vs control group): day 24
total score: days with significant difference ([2]; vs control group): days 14, 18, 20 and 22

C[C@@H](O)[C@H](NC(=O)[C@H](Cc1c[nH]c2ccccc12)NC(=O)[C@H](CC(N)=O)NC(=O)[C@@H]1CCC(=O)N1)C(=O)O [ZEP4 sodium salt, pGlu-Asn-Trp-Thr-OH.nNa] (HELM PEPTIDE1{[Glp].N.W.T}$$$$V2.0)
solubility (physchem): 50 mg/mL
